Key:
[1] = target: monomeric E290A/R298A 3CL^pro double mutant (Severe acute respiratory syndrome coronavirus 2, UniProt P0DTD1, E3553A/R3561A); type: binding, SARS-CoV-2
[2] = target: dimeric C145A 3CL^pro single mutant (Severe acute respiratory syndrome coronavirus 2, UniProt P0DTD1, C3408A); type: binding, SARS-CoV-2

CC(C)(C)c1ccc(N(C(=O)c2c[nH]cn2)[C@@H](C(=O)NC2CCCCC2)c2cccnc2)cc1 [X77]
binding detectable [1]: not | binding heat detected [2]: No measurable heat was detected
